In patent US9481676B2, “Azepino[4,5-B]indoles and methods of use” (Medivation Technologies, Inc., priority 2008, dated 2016):

Experiments:
[1] = molecular target: T1, human recombinant histamine H1 receptor (Homo sapiens, UniProt P35367); assay: Histamine H1 radioligand binding ([3H]Pyrilamine); details: compound at 1 μM; read-out: Histamine Binding (1 μM) H1, percent inhibition of specific binding
T1 construct: expressed in transfected cells; host or cells: CHO cells
Method in brief: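 Membranes from CHO cells expressing the receptor were incubated with compound and 1.2 nM [3H]pyrilamine for 180 min at 25 °C in 50 mM Tris-HCl pH 7.4 with MgCl2, NaCl and sucrose; 1 μM pyrilamine defined non-specific binding. Filter-bound radioactivity was counted.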

[2] = molecular target: T2, human recombinant histamine H2 receptor (Homo sapiens, UniProt P25021); assay: Histamine H2 radioligand binding ([125I]Aminopotentidine); details: compound at 1 μM; read-out: Histamine Binding (1 μM) H2, percent inhibition of specific binding
T2 construct: expressed in transfected cells; host or cells: CHO-K1 cells
Method in brief: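 Membranes from CHO-K1 cells expressing recombinant human H2 receptor, in 50 mM phosphate buffer pH 7.4, incubated with 0.1 nM [125I]aminopotentidine for 120 min at 25 °C; nonspecific binding defined with 3 μM tiotidine.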

T2 sequence (P25021 whole entry): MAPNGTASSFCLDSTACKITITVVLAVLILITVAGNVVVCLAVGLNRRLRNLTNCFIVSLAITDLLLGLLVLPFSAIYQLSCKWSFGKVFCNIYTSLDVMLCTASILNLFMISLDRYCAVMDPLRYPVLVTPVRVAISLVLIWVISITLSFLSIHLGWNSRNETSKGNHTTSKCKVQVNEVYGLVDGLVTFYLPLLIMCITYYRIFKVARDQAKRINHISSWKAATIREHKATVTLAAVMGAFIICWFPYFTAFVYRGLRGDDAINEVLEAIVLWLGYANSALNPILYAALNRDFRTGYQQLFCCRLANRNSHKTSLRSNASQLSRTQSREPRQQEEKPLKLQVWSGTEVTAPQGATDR
T1 sequence (P35367 whole entry): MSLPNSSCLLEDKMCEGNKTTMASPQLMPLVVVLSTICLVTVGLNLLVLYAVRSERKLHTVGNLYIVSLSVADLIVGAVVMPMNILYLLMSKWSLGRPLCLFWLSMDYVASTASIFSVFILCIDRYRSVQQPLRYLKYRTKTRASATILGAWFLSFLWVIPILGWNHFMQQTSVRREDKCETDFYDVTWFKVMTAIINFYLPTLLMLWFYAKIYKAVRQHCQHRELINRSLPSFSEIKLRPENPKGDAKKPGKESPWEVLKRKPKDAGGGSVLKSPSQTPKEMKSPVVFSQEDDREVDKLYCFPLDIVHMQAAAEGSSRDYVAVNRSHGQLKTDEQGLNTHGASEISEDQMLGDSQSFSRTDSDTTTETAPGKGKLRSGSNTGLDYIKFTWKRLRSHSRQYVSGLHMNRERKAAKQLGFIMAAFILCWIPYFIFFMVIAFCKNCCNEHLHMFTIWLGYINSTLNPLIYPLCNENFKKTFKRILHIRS

Row | Structure (SMILES) | inhibition at 1 µM [1] [%] | inhibition at 1 µM [2] [%]
1 | CN1CCc2c(n(CCc3ccccc3Cl)c3ccc(Cl)cc23)CC1 [Compound No. 29, 6-(2-chlorophenethyl)-9-chloro-1,2,3,4,5,6-hexahydro-3-methylazepino[4,5-b]indole] | 98 | 105
2 | CN1CCc2c(n(CCc3ccc(Cl)cc3)c3ccc(Cl)cc23)CC1 [Compound No. 30, 6-(4-chlorophenethyl)-9-chloro-1,2,3,4,5,6-hexahydro-3-methylazepino[4,5-b]indole] | 102 | 97
3 | CC(C)NC(=O)Cn1c2c(c3cc(Cl)ccc31)CCN(C)CC2 [Compound No. 31, 2-(9-chloro-2,3,4,5-tetrahydro-3-methylazepino[4,5-b]indol-6(1H)-yl)-N-isopropylacetamide] | 14 | -10
4 | Cc1ccc2c(c1)c1c(n2CC(=O)N2CCCCC2)CCN(C)CC1 [Compound No. 32, 2-(2,3,4,5-tetrahydro-3,9-dimethylazepino[4,5-b]indol-6(1H)-yl)-1-(piperidin-1-yl)ethanone] | 11 | -5
5 | C/C(=C\n1c2c(c3cc(C)ccc31)CCN(C)CC2)c1ccc(Cl)cc1 [Compound No. 33, 6-((E)-2-(4-chlorophenyl)prop-1-enyl)-1,2,3,4,5,6-hexahydro-3,9-dimethylazepino[4,5-b]indole] | 87 | 101
6 | C/C(=C\n1c2c(c3cc(C)ccc31)CCN(C)CC2)c1ccc(F)cc1 [Compound No. 34, 6-((E)-2-(4-fluorophenyl)prop-1-enyl)-1,2,3,4,5,6-hexahydro-3,9-dimethylazepino[4,5-b]indole] | 95 | 103
7 | C=C(Cn1c2c(c3cc(Cl)ccc31)CCN(C)CC2)c1ccc(Cl)cc1 [Compound No. 35, 9-chloro-6-(2-(4-chlorophenyl)allyl)-3-methyl-1,2,3,4,5,6-hexahydroazepino[4,5-b]indole] | 100 | 104
8 | C/C(=C\n1c2c(c3cc(Cl)ccc31)CCN(C)CC2)c1ccc(Cl)cc1 [Compound No. 36, 9-chloro-6-((E)-2-(4-chlorophenyl)prop-1-enyl)-1,2,3,4,5,6-hexahydro-3-methylazepino[4,5-b]indole] | 88 | 104
9 | CN1CCc2c(n(CC(=O)Nc3ccc(F)cc3)c3ccc(Cl)cc23)CC1 [Compound No. 37, 2-(9-chloro-2,3,4,5-tetrahydro-3-methylazepino[4,5-b]indol-6(1H)-yl)-N-(4-fluorophenyl) acetamide] | 13 | 4
10 | Cc1ccc2c(c1)c1c(n2CC(=O)N2CCOCC2)CCN(C)CC1 [Compound No. 38, 2-(2,3,4,5-tetrahydro-3,9-dimethylazepino[4,5-b]indol-6(1H)-yl)-1-morpholinoethanone] | 83 | 26
11 | Cc1ccc2c(c1)c1c(n2/C=C/c2ccc(F)cc2)CCN(C)CC1 [Compound No. 39, 6-(4-fluorostyryl)-1,2,3,4,5,6-hexahydro-3,9-dimethylazepino[4,5-b]indole] | 98 | 91
12 | CN1CCc2c(n(CC(O)c3ccccc3F)c3ccc(Cl)cc23)CC1 (centres unmarked) [Compound No. 40, 2-(9-chloro-2,3,4,5-tetrahydro-3-methylazepino[4,5-b]indol-6(1H)-yl)-1-(2-fluorophenyl)ethanol] | 101 | 61
13 | Cc1ccc2c(c1)c1c(n2CC(O)c2ccccc2F)CCN(C)CC1 (centres unmarked) [Compound No. 41, 1-(2-fluorophenyl)-2-(2,3,4,5-tetrahydro-3,9-dimethylazepino[4,5-b]indol-6(1H)-yl)ethanol] | 100 | 52
14 | CN1CCc2c(n(CC(O)c3ccncc3)c3ccc(Cl)cc23)CC1 (centres unmarked) [Compound No. 42, 2-(9-chloro-2,3,4,5-tetrahydro-3-methylazepino[4,5-b]indol-6(1H)-yl)-1-(pyridin-4-yl)ethanol] | 103 | 45
15 | Cc1ccc2c(c1)c1c(n2CC(O)c2ccncc2)CCN(C)CC1 (centres unmarked) [Compound No. 43, 2-(2,3,4,5-tetrahydro-3,9-dimethylazepino[4,5-b]indol-6(1H)-yl)-1-(pyridin-4-yl)ethanol] | 100 | 30
16 | Cc1ccc2c(c1)c1c(n2CC(=O)Nc2ccc(F)cc2)CCN(C)CC1 [Compound No. 44, N-(4-fluorophenyl)-2-(2,3,4,5-tetrahydro-3,9-dimethylazepino[4,5-b]indol-6(1H)-yl)acetamide] | 16 | 1
17 | Cc1ccc2c(c1)c1c(n2CC(=O)N2CCCC2)CCN(C)CC1 [Compound No. 45, 2-(2,3,4,5-tetrahydro-3,9-dimethylazepino[4,5-b]indol-6(1H)-yl)-1-(pyrrolidin-1-yl)ethanone] | 13 | 7
18 | Cc1ccc(CCn2c3c(c4cc(Cl)ccc42)CCN(C)CC3)cc1 [Compound No. 46, 9-chloro-3-methyl-6-(4-methylphenethyl)-1,2,3,4,5,6-hexahydroazepino[4,5-b]indole] | 108 | 89
19 | COc1ccc(C(O)Cn2c3c(c4cc(Cl)ccc42)CCN(C)CC3)cc1 (centres unmarked) [Compound No. 47, 2-(9-chloro-2,3,4,5-tetrahydro-3-methylazepino[4,5-b]indol-6(1H)-yl)-1-(4-methoxyphenyl)ethanol] | 100 | 70
20 | COc1ccc(C(O)Cn2c3c(c4cc(C)ccc42)CCN(C)CC3)cc1 (centres unmarked) [Compound No. 48, 2-(2,3,4,5-tetrahydro-3,9-dimethylazepino[4,5-b]indol-6(1H)-yl)-1-(4-methoxyphenyl) ethanol] | 98 | 56
21 | COc1ccc(C(O)Cn2c3c(c4cc(Cl)ccc42)CCN(C)CC3)c(F)c1 (centres unmarked) [Compound No. 49, 2-(9-chloro-2,3,4,5-tetrahydro-3-methylazepino[4,5-b]indol-6(1H)-yl)-1-(2-fluoro-4-methoxyphenyl) ethanol] | 94 | 65
22 | COc1ccc(C(O)Cn2c3c(c4cc(C)ccc42)CCN(C)CC3)c(F)c1 (centres unmarked) [Compound No. 50, 1-(2-fluoro-4-methoxyphenyl)-2-(2,3,4,5-tetrahydro-3,9-dimethylazepino[4,5-b]indol-6(1H)-yl)ethanol] | 98 | 65
23 | CN1CCc2c(n(CC(O)c3ccc(F)cc3)c3ccc(Cl)cc23)CC1 (centres unmarked) [Compound No. 51, 2-(9-chloro-2,3,4,5-tetrahydro-3-methylazepino[4,5-b]indol-6(1H)-yl)-1-(4-fluorophenyl) ethanol] | 102 | 70
24 | Cc1ccc2c(c1)c1c(n2CC(O)c2ccc(F)cc2)CCN(C)CC1 (centres unmarked) [Compound No. 52, 1-(4-fluorophenyl)-2-(2,3,4,5-tetrahydro-3,9-dimethylazepino[4,5-b]indol-6(1H)-yl)ethanol] | 96 | 61
25 | CN1CCc2c(n(CC(=O)N3CCCC3)c3ccc(Cl)cc23)CC1 [Compound No. 53, 2-(9-chloro-2,3,4,5-tetrahydro-3-methylazepino[4,5-b]indol-6(1H)-yl)-1-(pyrrolidin-1-yl)ethanone] | 14 | 3
